# Legend:
# Experiment in all cases: relative viability (nuclei count vs DMSO), 5 days (fraction); higher = more cells survive
# 201T = tested on: 201T
# Method in brief: (§1)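 Lung cancer cell lines in 1536-well plates got either a single drug or a fixed anchor-drug dose together with five library-drug doses (not always all listed) in √10 steps, by pin tool, on the day after seeding. Nuclei were counted after 5 days, and relative viability is the treated-to-vehicle ratio of nuclei counts. Values are medians of duplicate plates.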
# BEN = tested on: BEN
# Method in brief: as §1
# CAL-12T = tested on: CAL-12T
# Method in brief: as §1
# COR-L 105 = tested on: COR-L 105
# Method in brief: as §1
# H3255 = tested on: H3255
# Method in brief: as §1
# HARA = tested on: HARA
# Method in brief: as §1
# HCC-15 = tested on: HCC-15
# Method in brief: as §1
# HCC-827 = tested on: HCC-827
# Method in brief: as §1
# LC-2-ad = tested on: LC-2-ad
# Method in brief: as §1
# LCLC-103H = tested on: LCLC-103H
# Method in brief: as §1
# LK-2 = tested on: LK-2
# Method in brief: as §1
# LU99A = tested on: LU99A
# Method in brief: as §1
# LXF-289 = tested on: LXF-289
# Method in brief: as §1
# NCI-H1437 = tested on: NCI-H1437
# Method in brief: as §1
# NCI-H1651 = tested on: NCI-H1651
# Method in brief: as §1
# NCI-H1792 = tested on: NCI-H1792
# Method in brief: as §1
# NCI-H2085 = tested on: NCI-H2085
# Method in brief: as §1
# NCI-H2228 = tested on: NCI-H2228
# Method in brief: as §1
# NCI-H23 = tested on: NCI-H23
# Method in brief: as §1
# NCI-H2405 = tested on: NCI-H2405
# Method in brief: as §1
# NCI-H322M = tested on: NCI-H322M
# Method in brief: as §1
# RERF-LC-KJ = tested on: RERF-LC-KJ
# Method in brief: as §1
# UMC-11 = tested on: UMC-11
# Method in brief: as §1
smiles,measurement,setting,value
O=C(O)CCCCC(CCSCc1ccccc1)SCc1ccccc1 (stereo not drawn) [CPI-613] + COc1cccc2cc(-c3nc([C@H]4CC[C@H](C(=O)O)CC4)n4ncnc(N)c34)[nH]c12 [OSI-027] (partner 0.5 µM),relative viability,201T; first compound 5 µM,0.754
same,relative viability,201T; first compound 15.81 µM,0.711
same,relative viability,201T; first compound 50 µM,0.606
same,relative viability,201T; first compound 158.11 µM,0.678
same,relative viability,201T; first compound 500 µM,0.818
same,relative viability,BEN; first compound 5 µM,0.289
same,relative viability,BEN; first compound 15.81 µM,0.298
same,relative viability,BEN; first compound 50 µM,0.304
same,relative viability,BEN; first compound 158.11 µM,0.265
same,relative viability,BEN; first compound 500 µM,0.28
same,relative viability,CAL-12T; first compound 5 µM,0.739
same,relative viability,CAL-12T; first compound 15.81 µM,0.515
same,relative viability,CAL-12T; first compound 50 µM,0.593
same,relative viability,CAL-12T; first compound 158.11 µM,0.0379
same,relative viability,CAL-12T; first compound 500 µM,0.0106
same,relative viability,COR-L 105; first compound 5 µM,0.605
same,relative viability,COR-L 105; first compound 15.81 µM,0.407
same,relative viability,COR-L 105; first compound 50 µM,0.49
same,relative viability,COR-L 105; first compound 158.11 µM,0.319
same,relative viability,COR-L 105; first compound 500 µM,0.105
same,relative viability,H3255; first compound 5 µM,0.569
same,relative viability,H3255; first compound 15.81 µM,0.501
same,relative viability,H3255; first compound 50 µM,0.612
same,relative viability,H3255; first compound 500 µM,0.471
same,relative viability,HARA; first compound 15.81 µM,0.482
same,relative viability,HARA; first compound 50 µM,0.387
same,relative viability,HARA; first compound 158.11 µM,0.188
same,relative viability,HARA; first compound 500 µM,0.0367
same,relative viability,HCC-15; first compound 5 µM,0.552
same,relative viability,HCC-15; first compound 15.81 µM,0.602
same,relative viability,HCC-15; first compound 50 µM,0.586
same,relative viability,HCC-15; first compound 158.11 µM,0.364
same,relative viability,HCC-15; first compound 500 µM,0.0388
same,relative viability,HCC-827; first compound 5 µM,0.745
same,relative viability,HCC-827; first compound 15.81 µM,0.717
same,relative viability,HCC-827; first compound 50 µM,0.673
same,relative viability,HCC-827; first compound 158.11 µM,0.431
same,relative viability,HCC-827; first compound 500 µM,0.48
same,relative viability,LC-2-ad; first compound 5 µM,0.893
same,relative viability,LC-2-ad; first compound 15.81 µM,0.744
same,relative viability,LC-2-ad; first compound 50 µM,0.8
same,relative viability,LC-2-ad; first compound 158.11 µM,0.505
same,relative viability,LC-2-ad; first compound 500 µM,0.0505
same,relative viability,LCLC-103H; first compound 5 µM,0.424
same,relative viability,LCLC-103H; first compound 15.81 µM,0.428
same,relative viability,LCLC-103H; first compound 50 µM,0.345
same,relative viability,LCLC-103H; first compound 158.11 µM,0.377
same,relative viability,LCLC-103H; first compound 500 µM,0.317
same,relative viability,LK-2; first compound 5 µM,0.189
same,relative viability,LK-2; first compound 15.81 µM,0.19
same,relative viability,LK-2; first compound 50 µM,0.18
same,relative viability,LK-2; first compound 158.11 µM,0.161
same,relative viability,LK-2; first compound 500 µM,0.128
same,relative viability,LU99A; first compound 5 µM,0.29
same,relative viability,LU99A; first compound 15.81 µM,0.279
same,relative viability,LU99A; first compound 50 µM,0.262
same,relative viability,LU99A; first compound 158.11 µM,0.24
same,relative viability,LU99A; first compound 500 µM,0.0972
same,relative viability,LXF-289; first compound 5 µM,0.788
same,relative viability,LXF-289; first compound 15.81 µM,0.694
same,relative viability,LXF-289; first compound 50 µM,0.733
same,relative viability,LXF-289; first compound 158.11 µM,0.404
same,relative viability,LXF-289; first compound 500 µM,0.0382
same,relative viability,NCI-H1437; first compound 5 µM,0.892
same,relative viability,NCI-H1437; first compound 15.81 µM,0.814
same,relative viability,NCI-H1437; first compound 50 µM,0.818
same,relative viability,NCI-H1437; first compound 158.11 µM,0.245
same,relative viability,NCI-H1437; first compound 500 µM,0.0279
same,relative viability,NCI-H1651; first compound 5 µM,0.66
same,relative viability,NCI-H1651; first compound 15.81 µM,0.79
same,relative viability,NCI-H1651; first compound 50 µM,0.616
same,relative viability,NCI-H1651; first compound 158.11 µM,0.333
same,relative viability,NCI-H1651; first compound 500 µM,0.0775
same,relative viability,NCI-H1792; first compound 5 µM,0.653
same,relative viability,NCI-H1792; first compound 15.81 µM,0.65
same,relative viability,NCI-H1792; first compound 50 µM,0.693
same,relative viability,NCI-H1792; first compound 158.11 µM,0.666
same,relative viability,NCI-H1792; first compound 500 µM,0.614
same,relative viability,NCI-H2085; first compound 5 µM,0.727
same,relative viability,NCI-H2085; first compound 15.81 µM,0.659
same,relative viability,NCI-H2085; first compound 50 µM,0.787
same,relative viability,NCI-H2085; first compound 158.11 µM,0.308
same,relative viability,NCI-H2085; first compound 500 µM,0.112
same,relative viability,NCI-H2228; first compound 5 µM,0.538
same,relative viability,NCI-H2228; first compound 15.81 µM,0.467
same,relative viability,NCI-H2228; first compound 50 µM,0.525
same,relative viability,NCI-H2228; first compound 158.11 µM,0.192
same,relative viability,NCI-H2228; first compound 500 µM,0.072
same,relative viability,NCI-H23; first compound 5 µM,0.651
same,relative viability,NCI-H23; first compound 15.81 µM,0.531
same,relative viability,NCI-H23; first compound 50 µM,0.62
same,relative viability,NCI-H23; first compound 158.11 µM,0.263
same,relative viability,NCI-H23; first compound 500 µM,0.0292
same,relative viability,NCI-H2405; first compound 5 µM,0.638
same,relative viability,NCI-H2405; first compound 15.81 µM,0.582
same,relative viability,NCI-H2405; first compound 50 µM,0.588
same,relative viability,NCI-H2405; first compound 158.11 µM,0.533
same,relative viability,NCI-H2405; first compound 500 µM,0.513
same,relative viability,NCI-H322M; first compound 5 µM,0.511
same,relative viability,NCI-H322M; first compound 15.81 µM,0.422
same,relative viability,NCI-H322M; first compound 50 µM,0.515
same,relative viability,NCI-H322M; first compound 158.11 µM,0.336
same,relative viability,NCI-H322M; first compound 500 µM,0.0015
same,relative viability,RERF-LC-KJ; first compound 5 µM,0.553
same,relative viability,RERF-LC-KJ; first compound 15.81 µM,0.491
same,relative viability,RERF-LC-KJ; first compound 50 µM,0.513
same,relative viability,RERF-LC-KJ; first compound 158.11 µM,0.114
same,relative viability,RERF-LC-KJ; first compound 500 µM,0.0544
same,relative viability,UMC-11; first compound 5 µM,0.407
same,relative viability,UMC-11; first compound 15.81 µM,0.369
same,relative viability,UMC-11; first compound 50 µM,0.426
same,relative viability,UMC-11; first compound 158.11 µM,0.124
same,relative viability,UMC-11; first compound 500 µM,0.118
